Data published in US11000033B2, “Ketone or oxime compound, and herbicide” (NISSAN CHEMICAL CORPORATION, priority 2014, dated 2021).

How the values were obtained:
Assay type in all cases: in vivo
[1] = system: Echinochloa crus-galli var. crus-galli; test: Test Example 3: herbicidal effect by foliage application, Wagner pot (symbol H); details: application herbicide amount 320 g/ha
Method in brief: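 Post-emergence, paddy-type test: seedlings 14 d old in shallow-flooded (0.1–0.5 cm) alluvial soil, 25–30 °C greenhouse. Emulsion diluted to target rate, sprayed on leaves. Read-out: visual effect on each species at 3 weeks, per set criteria.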

Digitaria ciliaris = test: Test Example 5: herbicidal effect by foliage application, plastic box (symbol F); details: 320 g/ha, 3 weeks after application
Method in brief: (§1)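 Post-emergence spray; diluvial soil (sterilized), ~1.5 cm seed cover; greenhouse 25–30° C; 14-day-old plants; water-diluted emulsion at predetermined dose; visual score at 3 wk post-treatment.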

Veronica persica [2] = test: Test Example 5: herbicidal effect by foliage application, plastic box (symbol R); details: 320 g/ha, 3 weeks after application
Method in brief: as §1

Galium spurium [3] = test: Test Example 4: herbicidal effect by soil treatment (symbol Q); details: application herbicide amount 320 g/ha
Method in brief: (§2)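 Seeds were sown in sterilized diluvial soil, covered with about 1.5 cm of soil, and the soil surface was sprayed with a water-diluted emulsion of the compound at a predetermined rate. Plants grew in a greenhouse at 25° C. to 30° C.; effects were scored visually 3 weeks after application.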

Apera spica-venti = test: Test Example 4: herbicidal effect by soil treatment (symbol L); details: application herbicide amount 320 g/ha
Method in brief: as §2

Monochoria vaginalis = test: Test Example 2: herbicidal activity, application during weed generation in submerged conditions (symbol C); details: Table 23; application herbicide amount 320 g/ha; grade 0-5 by criteria of Test Example 1
Method in brief: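 Steps: fill pots with alluvial soil; add water to 4 cm depth; co-sow the three weeds; grow at 25° C. to 30° C. under glass; at 1–2 leaves, dose the floodwater with diluted emulsion; rate damage visually after 3 weeks.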

Avena fatua = test: Test Example 4: herbicidal effect by soil treatment (symbol I); details: application herbicide amount 320 g/ha
Method in brief: as §2

rice plant = test: Test Example 5: effect on crop by foliage application, plastic box (symbol b); details: 320 g/ha, 3 weeks after application
Method in brief: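 Box culture: sterile diluvial soil, seeds spot-sown, ~1.5 cm cover, raised under glass at 25–30° C.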

rapeseed = test: Test Example 4: effect on crop by soil treatment (symbol g); details: application herbicide amount 320 g/ha
Method in brief: (§3)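 Crop seed is sown in spots together with several weed species in a box of sterilized diluvial soil. It is covered by about 1.5 cm of soil and kept in a greenhouse held between 25° C. and 30° C.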

Galium spurium [4] = test: Test Example 5: herbicidal effect by foliage application, plastic box (symbol Q); details: 320 g/ha, 3 weeks after application
Method in brief: as §1

Stellaria media = test: Test Example 4: herbicidal effect by soil treatment (symbol P); details: application herbicide amount 320 g/ha
Method in brief: as §2

Veronica persica [5] = test: Test Example 4: herbicidal effect by soil treatment (symbol R); details: application herbicide amount 320 g/ha
Method in brief: as §2

wheat = test: Test Example 4: effect on crop by soil treatment (symbol e); details: application herbicide amount 320 g/ha
Method in brief: as §3

## CON=C(C)CC1CC(OC(=O)OC)=C(c2c(C)cc(C)cc2C)C1=O (stereo not shown) [1-014]
[1]
  herbicidal effect on H (Echinochloa crus-galli var. crus-galli), grade 0-5: 5 (Herbicidal ratio of 90% or more (almost completely withered))
Digitaria ciliaris
  F: Digitaria ciliaris, herbicidal effect grade: 5 (Herbicidal ratio of 90% or more (almost completely withered))
Veronica persica [2]
  R: Veronica persica, herbicidal effect grade: 3 (Herbicidal ratio of 40% or higher and lower than 70%)
Galium spurium [3]
  Q (Galium spurium) herbicidal effect grade: 5 (Herbicidal ratio of 90% or more (almost completely withered))
Apera spica-venti
  L (Apera spica-venti) herbicidal effect grade: 5 (Herbicidal ratio of 90% or more (almost completely withered))
Monochoria vaginalis
  Herbicidal effect grade, C: Monochoria vaginalis: 3 (Herbicidal ratio of 40% or higher and lower than 70%)
Avena fatua
  I (Avena fatua) herbicidal effect grade: 5 (Herbicidal ratio of 90% or more (almost completely withered))
Rice plant
  b: directly sowed rice plant, effect on crop grade: 5 (Herbicidal ratio of 90% or more (almost completely withered))

## COC(=O)C(C(=O)C1CC1)C1CC(O)=C(c2c(C)cc(C)cc2C)C1=O (stereo not shown) [2-014]
rapeseed
  g: rapeseed, effect on crop grade: 0 (Herbicidal ratio of 5% or lower (almost no effect))
[1]
  herbicidal effect on H (Echinochloa crus-galli var. crus-galli), grade 0-5: 5 (Herbicidal ratio of 90% or more (almost completely withered))
Galium spurium [4]
  Q: Galium spurium, herbicidal effect grade: 0 (Herbicidal ratio of 5% or lower (almost no effect))
Digitaria ciliaris
  F: Digitaria ciliaris, herbicidal effect grade: 3 (Herbicidal ratio of 40% or higher and lower than 70%)
Stellaria media
  P: Stellaria media, herbicidal effect grade: 0 (Herbicidal ratio of 5% or lower (almost no effect))
Veronica persica [2]
  R: Veronica persica, herbicidal effect grade: 3 (Herbicidal ratio of 40% or higher and lower than 70%)
Veronica persica [5]
  R: Veronica persica, herbicidal effect grade: 0 (Herbicidal ratio of 5% or lower (almost no effect))
Apera spica-venti
  L: Apera spica-venti, herbicidal effect grade: 2 (Herbicidal ratio of 20% or higher and lower than 40%)
Monochoria vaginalis
  Herbicidal effect grade, C: Monochoria vaginalis: 0 (Herbicidal ratio of 5% or lower (almost no effect))
Avena fatua
  I: Avena fatua, herbicidal effect grade: 0 (Herbicidal ratio of 5% or lower (almost no effect))
Rice plant
  b: directly sowed rice plant, effect on crop grade: 5 (Herbicidal ratio of 90% or more (almost completely withered))
wheat
  e: wheat, effect on crop grade: 0 (Herbicidal ratio of 5% or lower (almost no effect))

## Cc1cc(C)c(C2=C(O)CC(CC(=O)C3CC3)C2=O)c(C)c1 (stereo not shown) [2-017]
rapeseed
  g: rapeseed, effect on crop grade: 5 (Herbicidal ratio of 90% or more (almost completely withered))
[1]
  herbicidal effect on H (Echinochloa crus-galli var. crus-galli), grade 0-5: 5 (Herbicidal ratio of 90% or more (almost completely withered))
Digitaria ciliaris
  F: Digitaria ciliaris, herbicidal effect grade: 5 (Herbicidal ratio of 90% or more (almost completely withered))
Stellaria media
  P: Stellaria media, herbicidal effect grade: 0 (Herbicidal ratio of 5% or lower (almost no effect))
Veronica persica [2]
  R: Veronica persica, herbicidal effect grade: 0 (Herbicidal ratio of 5% or lower (almost no effect))
Galium spurium [3]
  Q: Galium spurium, herbicidal effect grade: 0 (Herbicidal ratio of 5% or lower (almost no effect))
Apera spica-venti
  L: Apera spica-venti, herbicidal effect grade: 3 (Herbicidal ratio of 40% or higher and lower than 70%)
Monochoria vaginalis
  Herbicidal effect grade, C: Monochoria vaginalis: 4 (Herbicidal ratio of 70% or higher and lower than 90%)
Avena fatua
  I: Avena fatua, herbicidal effect grade: 0 (Herbicidal ratio of 5% or lower (almost no effect))
Rice plant
  b: directly sowed rice plant, effect on crop grade: 5 (Herbicidal ratio of 90% or more (almost completely withered))
wheat
  e: wheat, effect on crop grade: 0 (Herbicidal ratio of 5% or lower (almost no effect))

## CCCC(=O)CC1CC(O)=C(c2c(C)cc(C)cc2C)C1=O (stereo not shown) [2-021]
rapeseed
  g: rapeseed, effect on crop grade: 1 (Herbicidal ratio of 5% or higher and lower than 20%)
[1]
  herbicidal effect on H (Echinochloa crus-galli var. crus-galli), grade 0-5: 5 (Herbicidal ratio of 90% or more (almost completely withered))
Galium spurium [4]
  Q: Galium spurium, herbicidal effect grade: 0 (Herbicidal ratio of 5% or lower (almost no effect))
Digitaria ciliaris
  F: Digitaria ciliaris, herbicidal effect grade: 4 (Herbicidal ratio of 70% or higher and lower than 90%)
Stellaria media
  P: Stellaria media, herbicidal effect grade: 0 (Herbicidal ratio of 5% or lower (almost no effect))
Veronica persica [2]
  R: Veronica persica, herbicidal effect grade: 0 (Herbicidal ratio of 5% or lower (almost no effect))
Veronica persica [5]
  R: Veronica persica, herbicidal effect grade: 0 (Herbicidal ratio of 5% or lower (almost no effect))
Apera spica-venti
  L: Apera spica-venti, herbicidal effect grade: 0 (Herbicidal ratio of 5% or lower (almost no effect))
Monochoria vaginalis
  Herbicidal effect grade, C: Monochoria vaginalis: 1 (Herbicidal ratio of 5% or higher and lower than 20%)
Avena fatua
  I: Avena fatua, herbicidal effect grade: 0 (Herbicidal ratio of 5% or lower (almost no effect))
Rice plant
  b: directly sowed rice plant, effect on crop grade: 4 (Herbicidal ratio of 70% or higher and lower than 90%)
wheat
  e: wheat, effect on crop grade: 0 (Herbicidal ratio of 5% or lower (almost no effect))

## C=CC(=O)CC1CC(O)=C(c2c(C)cc(C)cc2C)C1=O (stereo not shown) [2-031]
rapeseed
  g: rapeseed, effect on crop grade: 3 (Herbicidal ratio of 40% or higher and lower than 70%)
[1]
  herbicidal effect on H (Echinochloa crus-galli var. crus-galli), grade 0-5: 5 (Herbicidal ratio of 90% or more (almost completely withered))
Galium spurium [4]
  Q: Galium spurium, herbicidal effect grade: 0 (Herbicidal ratio of 5% or lower (almost no effect))
Digitaria ciliaris
  F: Digitaria ciliaris, herbicidal effect grade: 5 (Herbicidal ratio of 90% or more (almost completely withered))
Stellaria media
  P: Stellaria media, herbicidal effect grade: 0 (Herbicidal ratio of 5% or lower (almost no effect))
Veronica persica [2]
  R: Veronica persica, herbicidal effect grade: 4 (Herbicidal ratio of 70% or higher and lower than 90%)
Veronica persica [5]
  R: Veronica persica, herbicidal effect grade: 0 (Herbicidal ratio of 5% or lower (almost no effect))
Apera spica-venti
  L: Apera spica-venti, herbicidal effect grade: 2 (Herbicidal ratio of 20% or higher and lower than 40%)
Monochoria vaginalis
  Herbicidal effect grade, C: Monochoria vaginalis: 0 (Herbicidal ratio of 5% or lower (almost no effect))
Avena fatua
  I: Avena fatua, herbicidal effect grade: 0 (Herbicidal ratio of 5% or lower (almost no effect))
Rice plant
  b: directly sowed rice plant, effect on crop grade: 5 (Herbicidal ratio of 90% or more (almost completely withered))
wheat
  e: wheat, effect on crop grade: 3 (Herbicidal ratio of 40% or higher and lower than 70%)

## CON=C(C)CC1CC(O)=C(c2c(C)cc(C)cc2Br)C1=O (stereo not shown) [6-038]
rapeseed
  g: rapeseed, effect on crop grade: 5 (Herbicidal ratio of 90% or more (almost completely withered))
[1]
  herbicidal effect on H (Echinochloa crus-galli var. crus-galli), grade 0-5: 5 (Herbicidal ratio of 90% or more (almost completely withered))
Galium spurium [4]
  Q: Galium spurium, herbicidal effect grade: 0 (Herbicidal ratio of 5% or lower (almost no effect))
Digitaria ciliaris
  F: Digitaria ciliaris, herbicidal effect grade: 5 (Herbicidal ratio of 90% or more (almost completely withered))
Stellaria media
  P: Stellaria media, herbicidal effect grade: 0 (Herbicidal ratio of 5% or lower (almost no effect))
Veronica persica [2]
  R: Veronica persica, herbicidal effect grade: 3 (Herbicidal ratio of 40% or higher and lower than 70%)
Veronica persica [5]
  R: Veronica persica, herbicidal effect grade: 1 (Herbicidal ratio of 5% or higher and lower than 20%)
Apera spica-venti
  L: Apera spica-venti, herbicidal effect grade: 5 (Herbicidal ratio of 90% or more (almost completely withered))
Monochoria vaginalis
  Herbicidal effect grade, C: Monochoria vaginalis: 1 (Herbicidal ratio of 5% or higher and lower than 20%)
Avena fatua
  I: Avena fatua, herbicidal effect grade: 2 (Herbicidal ratio of 20% or higher and lower than 40%)
Rice plant
  b: directly sowed rice plant, effect on crop grade: 5 (Herbicidal ratio of 90% or more (almost completely withered))
wheat
  e: wheat, effect on crop grade: 1 (Herbicidal ratio of 5% or higher and lower than 20%)
